Results reported in patent US20220267269A1, “COMPOUNDS FOR THE MODULATION OF PROPROTEIN CONVERTASE SUBTILISIN/KEXIN TYPE 9 (PCSK9)” (SRX Cardio, LLC, priority 2019, published 2022).
pEC50: −log10 of the molar value.

Columns and labels:
PCSK9 [1] = biological target: T1, PCSK9 (Homo sapiens, UniProt Q8NBP7); test: Fluorescent-LDL uptake analysis by flow cytometric analysis; assay type: cell-based
T1 construct: purchased Cayman Chemical 20631
Description: Cells, such as HuH7, FL83B, or a cell line transfected with a short-hairpin PCSK9 knockdown sequence such as HuH7/shPCSK9 or FL83B/shPCSK9 were plated and cultured at 37° C. for 12-24 h. Culture media was removed and replaced with fresh lipoprotein-depleted culture media supplemented with 5 μg/mL of fluorescently labeled LDL or lipoprotein-depleted culture media supplemented with 5 μg/mL of fluorescently labeled LDL plus a concentration of recombinant PCSK9 (for example 5 μg/mL recombinant PCSK9; Cayman Chemical, Cat. #20631). Examples of fluorescently labeled LDL include: DiI-LDL (Kalen Biomedical), or LDL conjugated to Dylight (e.g., LDL-Dylight 488, or LDL-Dylight 550 (Cayman Chemical, Cat. #10011229)). Lipoprotein-depleted culture media was composed of DMEM (Invitrogen) with 10% lipoprotein-depleted fetal bovine serum (Kalen Biomedical) and supplemented with penicillin-streptomycin (Life Technologies). Cells were dosed with small molecule test compounds at doses ranging from 0 nM to 100 μM, following a protocol adapted from Benjannet et al., “Effects of the prosegment and pH on the activity of PCSK9: evidence for additional processing events” J Biol Chem. 285(52):40965-40978 (2010), which is incorporated by reference in its entirety.
Following an incubation period of specified length, such as 16 hours, the lipoprotein-depleted media was removed and cells rinsed three times with a rinse solution (Dulbecco's phosphate buffered saline (D-PBS, Life Technologies), supplemented with 0.5% bovine serum albumin (BSA, Sigma) and 1 g/L glucose (Sigma)). The fluid was then removed, and cells are released from the plate using TrypLE Express (Life Technologies) per manufacturer's recommended procedures, such as incubation for 5-10 minutes at 37° C. The TyrpLE-Cell suspension was then transferred to 15 mL conical tubes, volume was increased to 2 mL with D-PBS supplemented with 0.5% BSA, and […], and the tubes were centrifuged at 250×gravity for 10 minutes. Following centrifugation, the supernatant was aspirated and the cell pellet was resuspended in 300 μL PBS and counterstained with 4′,6-diamidino-2-phenylindole (DAPI, Cayman Chemical) as a cell viability marker, other cell viability markers such as 7-aminoactinomycin D (7AAD, Life Technologies) have also been described in the art.
(§1) Cells were analyzed by for both 7AAD (dead cells) and fluorescent LDL in live cells using a flow cytometer per the manufacturer's operating manual. Cells incubated with small molecule compounds that are inhibitors of PCSK9 will be expected to show increased amounts of LDL fluorescence, relative to control (no compound) specimens, and cells incubated with small molecule compounds that are activators of PCSK9 will be expected to show decreased amounts of LDL fluorescence relative to control (no compound) specimens.
The LDL-uptake EC50 is provided as follows: +++: <0.5 μM; ++: 0.5-1μM; +: >1 μM.

[2] = Microsomal stability analysis, mouse; assay type: in vitro ADME; details: pH 7.4; mouse liver microsomes, 1 μM test compound; read-out: Microsomal Stability t1/2
Description: (§2) Microsomal stability was determined as follows:
(§3) The assay was carried out in 96-well microtiter plates at 37° C. Reaction mixtures (25 μL) contained a final concentration of 1 μM test compound, 0.5 mg/mL liver microsomes protein, and 1 mM NADPH and/or 1 mM UDPGA (with alamethicin) in 100 mM potassium phosphate, pH 7.4 buffer with 3 mM MgCl2. At each of the time points (for example, 0, 15, 30, and 60 minutes), 150 μL of quench solution (100% acetonitrile with 0.1% formic acid) with internal standard was transferred to each well. Besides the zero minute controls, mixtures containing the same components except the NADPH can also be prepared as the negative control. Verapamil was included as a positive control to verify assay performance. Plates were sealed, vortexed, and centrifuged at 4° C. for 15 minutes at 4000 rpm. The supernatant was transferred to fresh plates for LC/MS/MS analysis. The extent of metabolism was calculated as the disappearance of the test compound, compared to the 0-min time incubation. Initial rates were calculated for the compound concentration and used to determine t½ values.

[3] = Microsomal stability analysis, rat; assay type: in vitro ADME; details: pH 7.4; rat liver microsomes, 1 μM test compound; read-out: Microsomal Stability t1/2
Description: as §2, §3

[4] = Microsomal stability analysis, human; assay type: in vitro ADME; details: pH 7.4; human liver microsomes, 1 μM test compound; read-out: Microsomal Stability t1/2
Description: as §2, §3

PCSK9 [5] = biological target: T1, PCSK9; test: LDLR flow cytometric analysis (LDLR recovery in cells treated with recombinant PCSK9); assay type: cell-based
Description: LDLR levels were measured using flow cytometry or fluorescence activated cell sorting (FACS) using protocols adapted from Benjannet et al., “Effects of the prosegment and pH on the activity of PCSK9: evidence for additional processing events” J Biol Chem. 285(52): 40965-40978 (2010) and “Composition and Methods of Use of Small Molecules as Binding Ligands for the Modulation of Proprotein Convertase Subtilisin/Kexin Type 9 (PCSK9) Protein Activity” (WO2016029037), which are incorporated by reference in their entirety.
Cells, such as HepG2, HuH7, FL83B, or a cell line transfected with a short-hairpin PCSK9 knockdown sequence such as HepG2/shPCSK9, HuH7/shPCSK9, or FL83B/shPCSK9 were cultured in media composed of complete, high glucose DMEM (Invitrogen) with 10% fetal bovine serum (Life Technologies), supplemented with penicillin-streptomycin (Life Technologies). Cells were plated in a 24-well plate, at 125 k cells/well, and cultured at 37° C. for 12-24 h. Culture media was removed and replaced with fresh culture media or culture media plus a predetermined amount of recombinant PCSK9 (for example, a final PCSK9 concentration of 5 μg/mL; Cayman Chemical, Ann Arbor, Mich., Catalog #20631). Wells evaluating test compounds were dosed with concentrations ranging from 0 nM to 100 μM.
Following an incubation period of 4-6 hours at 37° C., the media was removed and the cells rinsed by adding 0.5 ml of complete D-PBS (i.e., Dulbecco's phosphate buffered saline (D-PBS, Life Technologies) supplemented with 0.5% bovine serum albumin (BSA, Sigma) and 1 g/L glucose (Sigma)). The wash media was carefully aspirated, and cells released from the plate using 200 μL of TrypLE Express (Life Technologies) by incubating for 5-10 minutes at 37° C. The TrypLE-Cell suspension was inactivated by adding 100 μL of Fetal Bovine Serum, transferred to a v-bottom plate, and centrifuged at 250×gravity for 5 minutes. Following centrifugation, the supernatant was aspirated and the cell pellet is resuspended in 100 μL of complete D-PBS, and centrifuged at 250×gravity for 5 minutes. Following centrifugation, the supernatant was aspirated and the cell pellet was resuspended in 100 μL of antibody staining solution (600 μL of anti-LDLr-PE in complete D-PBS) and incubated on ice, protected from light, for 30 minutes. The cells were then pelleted by centrifugation, resuspended in 100 μL of 4′,6-Diamidino-2-phenylindole (DAPI, Cayman Chemical) or 7-aminoactinomycin D (7AAD, Life Technologies) staining solution to measure cell viability.
as §1, with “analyzed” for “analyzed by”, “cell viability marker” for “7AAD”, “LDLR” for “fluorescent LDL”, “LDLR,” for “LDL fluorescence,”, “LDLR” for “LDL fluorescence”
The percentage recovery in the LDLR assay at 10 μM concentration is provided as follows: +++: >80% recovery; ++: 40-80% recovery; +: 0-40% recovery.
The LDL-R EC50 is provided as follows: +++: <1; ++: 1 μM-5 μM; +: >5 μM.

PCSK9 [6] = biological target: T1, PCSK9; test: Biodesy direct binding measurement (second harmonic generation); details: Biodesy Delta System
Excerpt: Direct binding can be measured using the commercially available Biodesy Delta System (BDS, http://www.biodesy.com/products/; accessed Aug. 1, 2018). The BDS is a laser-based approach that utilizes second harmonic generation from a labeled protein to detect ligand binding, the method of which is covered and described by U.S. Pat. Nos. 9,395,358 and 8,932,822, and has been commercialized by Biodesy Inc. (South San Francisco, Calif.).

T1 sequence (Q8NBP7 153-692): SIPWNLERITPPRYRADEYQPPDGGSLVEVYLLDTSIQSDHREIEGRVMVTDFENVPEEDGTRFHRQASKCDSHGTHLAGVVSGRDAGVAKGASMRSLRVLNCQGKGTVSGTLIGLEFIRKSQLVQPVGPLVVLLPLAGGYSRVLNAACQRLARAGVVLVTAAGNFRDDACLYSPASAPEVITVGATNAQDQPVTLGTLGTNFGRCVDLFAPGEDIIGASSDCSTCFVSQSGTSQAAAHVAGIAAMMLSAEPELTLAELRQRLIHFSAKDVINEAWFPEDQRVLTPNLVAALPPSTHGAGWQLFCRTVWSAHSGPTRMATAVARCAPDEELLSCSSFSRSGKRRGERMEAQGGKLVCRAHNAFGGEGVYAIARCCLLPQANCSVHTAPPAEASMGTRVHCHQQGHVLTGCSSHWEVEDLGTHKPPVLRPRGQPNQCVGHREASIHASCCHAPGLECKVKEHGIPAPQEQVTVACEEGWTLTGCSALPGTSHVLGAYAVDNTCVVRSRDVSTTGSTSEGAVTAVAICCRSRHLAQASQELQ

Row | pEC50 (PCSK9 [1]) | half-life at 1 μM [2] | half-life at 1 μM [3] | half-life at 1 μM [4] | pEC50 (PCSK9 [5]) | ΔSHG (PCSK9 [6]) | Compound
1 | < 6.00 | – | – | – | – | – | FC(F)(F)c1cccc(-c2ccc(C3CCCN(CC4CCCC4)C3)cc2)c1 (stereo not shown) [1,013, 1-(cyclopentylmethyl)-3-(3′-(trifluoromethyl)-[1,1′-biphenyl]-4-yl)piperidine]
2 | > 6.30 | 67 min | 13 min | 86 min | 5.30 to 6.00 | – | Fc1ccc(-c2ccc(C3CCCN(CC4CCCC4)C3)cc2)cc1 (stereo not shown) [Compound 1,009, 1-(cyclopentylmethyl)-3-(4′-fluoro-[1,1′-biphenyl]-4-yl)piperidine]
3 | 6.00 to 6.30 | – | – | – | – | – | Fc1cc(F)cc(-c2ccc(C3CCCN(CC4CCCC4)C3)cc2)c1 (stereo not shown) [1,029, 1-(cyclopentylmethyl)-3-(3′,5′-difluoro-[1,1′-biphenyl]-4-yl)piperidine]
4 | < 6.00 | – | – | – | – | – | FC(F)(F)c1cc(C2CCCN(CC3CCOC3)C2)ccc1-c1ccccc1 (stereo not shown) [1,027, 1-((tetrahydrofuran-3-yl)methyl)-3-(2-(trifluoromethyl)-[1,1′-biphenyl]-4-yl)piperidine]
5 | 6.00 to 6.30 | – | – | – | – | – | Cc1cc(-c2ccc(Cl)cc2)ccc1C1CCCN(CC2CCCC2)C1 (stereo not shown) [1,039, 3-(4′-chloro-3-methyl-[1,1′-biphenyl]-4-yl)-1-(cyclopentylmethyl) piperidine]
6 | > 6.30 | 76 min | 15 min | > 120 min | < 5.30 | – | Clc1ccc(-c2ccc(C3CCCN(CC4CCCC4)C3)cc2)cc1 (stereo not shown) [Compound 1,010, 3-(4′-chloro-[1,1′-biphenyl]-4-yl)-1-(cyclopentylmethyl)piperidine]
7 | 6.00 to 6.30 | – | – | – | – | – | Cc1cc(C2CCCN(C3CCCC3)C2)ccc1-c1ccc(Cl)cc1 (stereo not shown) [1,040, 3-(4′-chloro-2-methyl-[1,1′-biphenyl]-4-yl)-1-cyclopentylpiperidine]
8 | – | 25 min | 10 min | > 120 min | 5.30 to 6.00 | > 10% | Fc1ccc(-c2ccc(C3CCCN(CC4CC4)C3)cc2)cc1 (stereo not shown) [Compound 1,001, 1-(cyclopropylmethyl)-3-(4′-fluoro-[1,1′-biphenyl]-4-yl)piperidine]
9 | 6.00 to 6.30 | 28 min | 13 min | 22 min | 5.30 to 6.00 | – | c1ccc(-c2ccc(C3CCCN(CC4CCCC4)C3)cc2)cc1 (stereo not shown) [Compound 1,006, 3-([1,1′-biphenyl]-4-yl)-1-(cyclopentylmethyl)piperidine]
10 | – | – | – | – | 5.30 to 6.00 | – | c1ccc(-c2ccc(C3CCCN(C4CCCC4)C3)cc2)cc1 (stereo not shown) [1,003, 3-([1,1′-biphenyl]-4-yl)-1-cyclopentylpiperidine]
11 | > 6.30 | 61 min | 17 min | > 120 min | > 6.00 | – | FC(F)(F)c1ccc(-c2ccc(C3CCCN(CC4CCCC4)C3)cc2)cc1 (stereo not shown) [Compound 1,011, 1-(cyclopentylmethyl)-3-(4′-(trifluoromethyl)-[1,1′-biphenyl]-4-yl)piperidine]
12 | 6.00 to 6.30 | – | – | – | < 5.30 | – | Fc1ccc(-c2ccc(C3CCCN(Cc4ccccc4)C3)cc2)cc1 (stereo not shown) [Compound 1,035, 1-benzyl-3-(4′-fluoro-[1,1′-biphenyl]-4-yl)piperidine]
13 | – | – | – | – | 5.30 to 6.00 | – | c1cc(-c2ccc(C3CCCN(CC4CCCC4)C3)cc2)ccn1 (stereo not shown) [1,005, 4-(4-(1-(cyclopentylmethyl)piperidin-3-yl)phenyl) pyridine]
